From patent publication US20120077804A1, “Small Molecule Inhibitors of RNA Silencing” (The Regents of the University of California, priority 2007, published 2012)

Tests used:
[1] = test system: RNAi-mediated innate immunity against virus infection in cultured Drosophila cells; assay: Cell-based high throughput screen, GFP expression in R1gfp cells after induction of FHV replication
Source text: A cell-based high throughput screening protocol for the identification of chemical inhibitors of the RNAi-mediated innate immunity against virus infection in cultured Drosophila cells has been established. The system is based on Flock house virus (FHV), an animal Nodavirus that contains a bipartite RNA genome. FHV RNA2 encodes the single virion structural protein, whereas FHV RNA1 encodes the viral RNA-dependent RNA polymerase (RdRP) and B2, a viral suppressor of RNAi (VSR) expressed after RNA1 replication from its own mRNA, RNA3. In the absence of RNA2, RNA1 replicates autonomously, accumulates to high levels, and produces abundant RNA3 in Drosophila cells. […] Similarly, green fluorescence is not detectable in wild type Drosophila cells transfected with pR1gfp, which encodes a recombinant RNA1 in which the viral B2 gene is replaced with green fluorescent protein (GFP) gene. A stable Drosophila Schneider 2 cell line has been established, and carries pR1gfp, called line R1gfp. R1gfp cells were seeded in 96-well plates and incubated overnight with chemicals from ChemBridge Diverset Library before FHV replication was induced. Expression of GFP was screened in R1gfp cells two days following the induction of FHV replication (see, Li et al., Proc Natl Acad Sci USA 2004, 101(5), 1350-5).

[2] = test system: RNAi induced by synthetic double-stranded RNA (dsRNA); assay: Northern blot of Cyclin A mRNA in S2 cells, RNAi induced by synthetic dsRNA (dsCycA); format: cell-based, Drosophila; conditions: for Degradation of cyclin A mRNA targeted by dsCycA: dsCycA plus 30 μM compound
Source text: FIG. 2 illustrates the northern blot detection of Cyclin A mRNA in S2 cells.
Degradation of cyclin A mRNA occurred in S2 cells transfected with a dsRNA specific to cyclin A (dsCycA) (see, FIG. 2, lanes 1-2), but not in cells treated with a GFP-specific dsRNA (dsGFP) (see, FIG. 2, lane 8). […] Similar inhibition of cyclin A RNAi was also observed in cells co-transfected with a dsRNA targeting mRNA of Drosophila Ago2 (see, FIG. 2, lane 9), which is essential for RNAi in Drosophila.

| Compound | Inhibition of RNAi-mediated viral immunity (detection of green fluorescence) [1] | Inhibition of RNAi induced by synthetic double-stranded RNA (dsRNA) [2] | Degradation of cyclin A mRNA targeted by dsCycA [2] |
| --- | --- | --- | --- |
| COc1ccc(CN2CCN(S(=O)(=O)c3ccc(C)cc3)CC2)cc1OCc1ccccc1 [Rin2, 1-[3-(benzyloxy)-4-methoxybenzyl]-4-[(4-methylphenyl)sulfony]piperazine] | inhibit the RNAi-mediated viral immunity | active inhibitors | partially inhibited |
| CCN(CC)c1ccc(/C=C2/C(=O)NN(c3ccc(C)c(Cl)c3)C2=O)c(O)c1 [Rin3, 1-(3-chloro-4-methylphenyl)-4-[4-(diethylamino)-2-hydroxybenzylidene]-3,5-pyrazolidinedione] | inhibit the RNAi-mediated viral immunity | active inhibitors | partially inhibited |
